According to patent US10160743B2, “Sulphamoylthiophenamide derivatives and the use thereof as medicaments for the treatment of hepatitis B” (Janssen Sciences Ireland UC, priority 2013, dated 2018):

Key:
HBV [1] = assay: Anti-HBV activity, HepG2.117 cell line (Tet-off), intracellular HBV DNA by realtime PCR; assay type: cell-based, Hepatitis B virus; conditions: HepG2.117 cells, 3 days of treatment
[2] = Cytotoxicity in HepG2 cells, Resazurin assay; assay type: cell-based; conditions: human, incubated for 4 days, Resazurin viability
HBV [3] = assay: Anti-HBV activity, HepG2.2.15 cell line, HBV DNA from secreted virions by realtime PCR; assay type: cell-based, Hepatitis B virus; conditions: HepG2.2.15 cells, 6 days of treatment
HepG2 cells = assay: Cytotoxicity in HepG2 cells, Resazurin assay; assay type: cell-based; conditions: incubated for 4 days, Resazurin viability
[4] = Hepatitis B virus, HepG2.117, 72 h
[5] = Hepatitis B virus, HepG2.2.15, 144 h

SMILES: Cc1cc(NC(=O)c2csc(S(=O)(=O)N[C@H]3CCOC3)c2)ccc1F [Compound 1, N-(4-fluoro-3-methyl-phenyl)-5-[[(3S)-tetrahydrofuran-3-yl]sulfamoyl]thiophene-3-carboxamide]
- EC50 (HBV [1]; [4]): 320 nM
- CC50 at 4 days [2]: > 25 µM
- EC50 (HBV [3]; [5]): 170 nM

SMILES: Cc1sc(S(=O)(=O)NC2(C)COC2)cc1C(=O)Nc1ccc(F)c(Cl)c1 [Compound 28, N-(3-Chloro-4-fluorophenyl)-2-methyl-5-[(3-methyloxetan-3-yl)-sulfamoyl]thiophene-3-carboxamide]
- EC50 (HBV [1]; [4]): 41 nM
- CC50 at 4 days [2]: > 25 µM
- EC50 (HBV [3]; [5]): 34 nM

SMILES: Cc1cc(NC(=O)c2scc(S(=O)(=O)N[C@H]3CCOC3)c2C)ccc1F [Compound 11, N-(4-fluoro-3-methyl-phenyl)-3-methyl-4-[[(3S)-tetrahydrofuran-3-yl]-sulfamoyl]thiophene-2-carboxamide]
- EC50 (HBV [1]; [4]): 310 nM
- CC50 at 4 days [2]: > 25 µM
- EC50 (HBV [3]; [5]): 190 nM

SMILES: Cc1cc(NC(=O)c2cc(S(=O)(=O)NC3(C)COC3)sc2C)ccc1F [Compound 15, N-(4-fluoro-3-methyl-phenyl)-2-methyl-5-[(3-methyloxetan-3-yl)-sulfamoyl]thiophene-3-carboxamide]
- EC50 (HBV [1]; [4]): 160 nM
- CC50 at 4 days [2]: > 25 µM
- EC50 (HBV [3]; [5]): 27 nM

SMILES: Cc1cc(NC(=O)c2cc(S(=O)(=O)NC(C)(C)C(N)=O)sc2C)ccc1F [Compound 33, 5-[(2-Amino-1,1-dimethyl-2-oxoethyl)sulfamoyl]-N-(4-fluoro-3-methylphenyl)-2-methylthiophene-3-carboxamide]
- EC50 (HBV [1]; [4]): 130 nM
- CC50 at 4 days [2]: > 25 µM
- EC50 (HBV [3]; [5]): 140 nM

SMILES: Cc1sc(S(=O)(=O)NC(CF)CF)cc1C(=O)Nc1ccc(F)c(F)c1 [Compound 52, N-(3,4-difluorophenyl)-5-[[2-fluoro-1-(fluoromethyl)ethyl]sulfamoyl]-2-meth thiophene-3-carboxamide]
- EC50 (HBV [1]; [4]): 170 nM
- CC50 at 4 days [2]: > 25 µM
- EC50 (HBV [3]; [5]): 170 nM

SMILES: Cc1cc(NC(=O)c2cc(S(=O)(=O)NC(C)(C)C)sc2C)cc(F)c1F [Compound 23, 5-(tert-Butylsulfamoyl)-N-(3,4-difluoro-5-methylphenyl)-2-methylthiophene-3-carboxamide]
- EC50 (HBV [1]; [4]): 32 nM
- CC50 at 4 days [2]: 18.1 µM
- EC50 (HBV [3]; [5]): 110 nM

SMILES: Cc1sc(S(=O)(=O)N[C@H](C)C(C)(F)F)cc1C(=O)Nc1ccc(F)c(F)c1 [Compound 55, 5-[[(1R)-2,2-difluoro-1-methyl-propyl]sulfamoyl]-N-(3,4-difluorophenyl)-2-methyl-thiophene-3-carboxamide]
- EC50 (HBV [1]; [4]): 90 nM
- CC50 at 4 days [2]: 14.6 µM
- EC50 (HBV [3]; [5]): 32 nM

SMILES: Cc1sc(S(=O)(=O)N[C@H](C)C(F)(F)F)cc1C(=O)Nc1cc(F)c(F)c(Cl)c1 [Compound 36, N-(3-Chloro-4,5-difluorophenyl)-2-methyl-5-{[(1R)-2,2,2-trifluoro-1-methylethyl]sulfamoyl}thiophene-3-carboxamide]
- EC50 (HBV [1]; [4]): 160 nM
- CC50 at 4 days [2]: 7.1 µM
- EC50 (HBV [3]; [5]): 140 nM

SMILES: Cc1sc(S(=O)(=O)NC2(C(F)(F)F)CC2)cc1C(=O)Nc1ccc(F)c(F)c1 [Compound 34, N-(3,4-Difluorophenyl)-2-methyl-5-{[1-(trifluoromethyl)cyclopropyl]-sulfamoyl}thiophene-3-carboxamide]
- EC50 (HBV [1]; [4]): 130 nM
- CC50 at 4 days [2]: 17.7 µM
- EC50 (HBV [3]; [5]): 100 nM

SMILES: COC(=O)C(C)(C)NS(=O)(=O)c1cc(C(=O)Nc2ccc(F)c(F)c2)c(C)s1 [Compound 30, Methyl N-({4-[(3,4-difluorophenyl)carbamoyl]-5-methylthiophen-2-yl}sulfonyl)-2-methylalaninate]
- EC50 (HBV [1]; [4]): 790 nM
- CC50 at 4 days [2]: > 25 µM
- EC50 (HBV [3]; [5]): > 1000 nM

SMILES: Cc1cc(NC(=O)c2scc(S(=O)(=O)NC3(C)COC3)c2C)ccc1F [Compound 12, N-(4-fluoro-3-methyl-phenyl)-3-methyl-4-[(3-methyloxetan-3-yl)-sulfamoyl]thiophene-2-carboxamide]
- EC50 (HBV [1]; [4]): 190 nM
- CC50 at 4 days [2]: > 25 µM
- EC50 (HBV [3]; [5]): 160 nM

SMILES: Cc1cc(NC(=O)c2cc(S(=O)(=O)NC3(C)CCOC3)sc2C)ccc1F (racemic) [Compound 16a, N-(4-fluoro-3-methyl-phenyl)-2-methyl-5-[(3-methyltetrahydrofuran-3yl)sulfamoyl]thiophene-3-carboxamide]
- EC50 (HBV [1]): 87 nM
- CC50 (HepG2 cells): > 25 µM
- EC50 (HBV [3]): 75 nM

SMILES: Cc1sc(S(=O)(=O)NC(C)(C)C(F)(F)F)cc1C(=O)Nc1ccc(F)c(F)c1 [Compound 50, N-(3,4-difluorophenyl)-2-methyl-5-[(2,2,2-trifluoro-1,1-dimethyl-ethyl)sulfamoyl]thiophene-3-carboxamide]
- EC50 (HBV [1]; [4]): 190 nM
- CC50 at 4 days [2]: > 25 µM
- EC50 (HBV [3]; [5]): 140 nM

SMILES: CCc1sc(S(=O)(=O)N[C@H]2CCOC2)cc1C(=O)Nc1ccc(F)c(C)c1 [Compound 14, 2-ethyl-N-(4-fluoro-3-methyl-phenyl)-5-[[(3S)-tetrahydrofuran-3-yl]-sulfamoyl]thiophene-3-carboxamide]
- EC50 (HBV [1]; [4]): 130 nM
- CC50 at 4 days [2]: > 25 µM
- EC50 (HBV [3]; [5]): 630 nM

SMILES: Cc1sc(S(=O)(=O)NC2(C(F)(F)F)CCOC2)cc1C(=O)Nc1ccc(F)c(C#N)c1 (racemic) [Compound 54, N-(3-cyano-4-fluoro-phenyl)-2-methyl-5-[[3-(trifluoromethyl)tetrahydrofuran-3-yl]sulfamoyl]thiophene-3-carboxamide]
- EC50 (HBV [1]; [4]): 100 nM
- CC50 at 4 days [2]: > 25 µM
- EC50 (HBV [3]; [5]): 180 nM

SMILES: Cc1sc(S(=O)(=O)NC2(C)COC2)cc1C(=O)Nc1cc(F)c(F)c(Cl)c1 [Compound 19, N-(3-chloro-4,5-difluoro-phenyl)-2-methyl-5-[(3-methyloxetan-3-yl)-sulfamoyl]thiophene-3-carboxamide]
- EC50 (HBV [1]; [4]): 100 nM
- CC50 at 4 days [2]: > 25 µM
- EC50 (HBV [3]; [5]): 63 nM

SMILES: Cc1cc(NC(=O)c2cc(S(=O)(=O)NC(C)(C)C)sc2C)ccc1F [Compound 25, 5-(tert-Butylsulfamoyl)-N-(4-fluoro-3-methylphenyl)-2-methylthiophene-3-carboxamide]
- EC50 (HBV [1]; [4]): 58 nM
- CC50 at 4 days [2]: > 25 µM
- EC50 (HBV [3]; [5]): 53 nM

SMILES: Cc1sc(S(=O)(=O)N[C@@H](C)C(C)(F)F)cc1C(=O)Nc1ccc(F)c(F)c1 [Compound 47, 5-[[(1S)-2,2-difluoro-1-methyl-propyl]sulfamoyl]-N-(3,4-difluorophenyl)-2-methyl-thiophene-3-carboxamide]
- EC50 (HBV [1]; [4]): 340 nM
- CC50 at 4 days [2]: 14.3 µM
- EC50 (HBV [3]; [5]): 160 nM

SMILES: Cc1cc(NC(=O)c2cc(S(=O)(=O)N[C@H](C)C(F)(F)F)sc2C)ccc1F [Compound 39, N-(4-Fluoro-3-methylphenyl)-2-methyl-5-{[(1R)-2,2,2-trifluoro-1-methylethyl]sulfamoyl}thiophene-3-carboxamide]
- EC50 (HBV [1]; [4]): 60 nM
- CC50 at 4 days [2]: > 25 µM
- EC50 (HBV [3]; [5]): 70 nM

SMILES: Cc1cc(NC(=O)c2cc(S(=O)(=O)NC3(C)CCOC3)sc2C)ccc1F (racemic) [Compound 16b, N-(4-fluoro-3-methyl-phenyl)-2-methyl-5-[(3-methyltetrahydrofuran-3yl)sulfamoyl]thiophene-3-carboxamide]
- EC50 (HBV [1]): 26 nM
- CC50 (HepG2 cells): > 25 µM
- EC50 (HBV [3]): 28 nM

SMILES: Cc1sc(S(=O)(=O)NC(C)(C)C(F)(F)F)cc1C(=O)Nc1cccc(C(F)(F)F)c1 [Compound 42, 2-methyl-5-[(2,2,2-trifluoro-1,1-dimethyl-ethyl)sulfamoyl]-N-[3-(trifluoromethyl)phenyl]thiophene-3-carboxamide]
- EC50 (HBV [1]; [4]): > 1000 nM
- CC50 at 4 days [2]: 16.9 µM
- EC50 (HBV [3]; [5]): 530 nM

SMILES: Cc1sc(S(=O)(=O)NC(C)(C)C)cc1C(=O)Nc1ccc(F)c(F)c1 [Compound 17, 5-(tert-butylsulfamoyl)-N-(3,4-difluorophenyl)-2-methyl-thiophene-3-carboxamide]
- EC50 (HBV [1]; [4]): 130 nM
- CC50 at 4 days [2]: 11.7 µM
- EC50 (HBV [3]; [5]): 120 nM

SMILES: Cc1cc(NC(=O)c2cc(S(=O)(=O)NC3(C)CCOC3)sc2C)ccc1F (racemic) [Compound 16, N-(4-fluoro-3-methyl-phenyl)-2-methyl-5-[(3-methyltetrahydrofuran-3-yl)sulfamoyl]thiophene-3-carboxamide]
- EC50 (HBV [1]): 48 nM
- CC50 at 4 days [2]: > 25 µM
- EC50 (HBV [3]): 54 nM

SMILES: Cc1cc(NC(=O)c2cc(S(=O)(=O)NC3(C)COC3)sc2C)cc(C#N)c1F [Compound 44, N-(3-cyano-4-fluoro-5-methyl-phenyl)-2-methyl-5-[(3-methyloxetan-3-yl)sulfamoyl]thiophene-3-carboxamide]
- EC50 (HBV [1]; [4]): 450 nM
- CC50 at 4 days [2]: > 25 µM
- EC50 (HBV [3]; [5]): 820 nM

SMILES: COC(=O)C(C)(C)NS(=O)(=O)c1cc(C(=O)Nc2ccc(F)c(C)c2)c(C)s1 [Compound 31, Methyl N-({4-[(4-fluoro-3-methylphenyl)carbamoyl]-5-methylthiophen-2-yl}sulfonyl)-2-methylalaninate]
- EC50 (HBV [1]; [4]): 170 nM
- CC50 at 4 days [2]: > 25 µM
- EC50 (HBV [3]; [5]): 520 nM

SMILES: Cc1sc(S(=O)(=O)NC(CF)CF)cc1C(=O)Nc1ccc(F)c(C#N)c1 [Compound 43, N-(3-cyano-4-fluoro-phenyl)-5-[[2-fluoro-1-(fluoromethyl)ethyl]sulfamoyl]-2-methyl-thiophene-3-carboxamide]
- EC50 (HBV [1]; [4]): 670 nM
- CC50 at 4 days [2]: > 25 µM
- EC50 (HBV [3]; [5]): 330 nM

SMILES: Cc1sc(S(=O)(=O)N[C@H](C)C(F)(F)F)cc1C(=O)Nc1ccc(F)c(C#N)c1 [Compound 51, N-(3-cyano-4-fluoro-phenyl)-2-methyl-5-[[(1R)-2,2,2-trifluoro-1-methyl-ethyl]sulfamoyl]thiophene-3-carboxamide]
- EC50 (HBV [1]; [4]): 170 nM
- CC50 at 4 days [2]: > 25 µM
- EC50 (HBV [3]; [5]): 250 nM
